Results: article PMC9820118, “Betulin Acid Ester Derivatives Inhibit Cancer Cell Growth by Inducing Apoptosis through Caspase Cascade Activation: A Comprehensive In Vitro and In Silico Study” (International Journal of Molecular Sciences, 2022)
“Also recorded” adds a separate entry of the source.

What was measured:
[1] = parameters: method as in earlier work; conditions: literature lipophilicity of RP-TLC reference compounds; cited from earlier work
[2] = Experimental lipophilicity by RP-TLC; conditions: for RM0: RP-TLC, RP-18 F254S, acetone / Tris buffer pH 7.4, extrapolated to zero acetone
Procedure: The retention mechanism in the RP-TLC method is based on the partition of substances between two phases. Silica gel (RP-18 F254S plates) was used as the hydrophobic stationary phase. In contrast, the hydrophilic mobile phase was a binary mixture of acetone and an aqueous solution of TRIS buffer.
Chromatographic analysis by RP-TLC was performed an aluminum backed silica gel RP-18 F254S
phenylanthracene] and tested betulin derivatives were dissolved in chloroform to obtain a
concentration of 2 mg/mL. The prepared solutions were spotted on the plates in the amount of 2 μL.
the next step, the chromatographic chambers were saturated 30 min of the appropriate mobile phases
consisting of a mixture of acetone (Merck, Darmstadt, Germany) and aqueous solution of buffer Tris
[(tris-hydroxymethyl)aminomethane] (Fluka, Loughborough, 0.2 M, pH 7.4). The amount of acetone in
the mobile phase were in the range 60-90% in 5% increments. The chromatograms were developed for
each compound in triplicate at room temperature. The spots of betulin derivatives were visualized by
spraying the plates with the mixture of ethanol and concentrated sulfuric acid (10:1, v/v) and heating
The retardation factor (Rf) were calculated according to the equation below:
(a-the distance from the start line to the spot center, b-the distance from the start line to the mobile
The RM values were calculated by the Bate-Smith and Westall equation:
The RM0 parameters were obtained by extrapolating on the acetone content to zero, according to the
Soczewiński-Wachtmeister equation:
(C-the percentage concentration of acetone in the mobile phase, b-the slope of the regression plot).
The calibration curve was determined using eight reference compounds.
compounds were determined under the same conditions as for betulin derivatives (Table S1).

[3] = system: MV4-11 cells; test: Antiproliferative activity, MTT assay, MV4-11 leukemia cells; assay type: cell-based, human; conditions: for IC50: Homo sapiens, MV4-11, 72 h, 72 h incubation, MTT, read-out: Growth inhibition IC50, leukemia cell line MV4-11; for Calculated Selectivity Index SI, MV4-11: IC50 BALB/3T3 / IC50 MV4-11
Procedure: (§7) The in vitro antiproliferative activity tests have been conducted against four human cancer cell lines: MV4-11 biphenotypic B myelomonocytic leukemia cell line, A549 lung carcinoma cell line, MCF-7 breast carcinoma cell line, PC-3 prostate carcinoma cell line and one normal BALB/3T3 mouse fibroblast cell line. […] All tested compounds were dissolved in DMSO and diluted with a culture medium to a desired concentration. […] Cell viability, after 72 h incubation of the cells with tested compounds, was determined using tetrazolinum dye MTT (for MV4-11 cells) or sulforhodamine B (SRB test, for MCF-7, A549, PC-3, BALB/3T3 cells) colorimetric assays.
(§8) Human biphenotypic B myelomonocytic leukemia MV4-11, murine normal fibroblast BALB/3T3 cells were obtained from the American Type Culture Collection (USA); and human lung carcinoma A549, human breast cancer MCF-7 and human prostate adenocarcinoma PC-3 were obtained from the European Collection of Authenticated Cell Cultures (UK).
(§9) MV4-11 and PC-3 cells were cultured in RPMI 1640 medium (HIIET PAS, Poland) with 1.0 mM sodium pyruvate (only MV4-11) and 10% fetal bovine serum (FBS) (all from Merck, Darmstadt, Germany). A549 cells were cultured in RPMI 1640 + Opti-MEM (1:1) ((HIIET PAS, Poland and Gibco, UK) supplemented with 5% fetal bovine serum (Merck, Darmstadt, Germany). The MCF-7 cells were cultured in Eagle medium (HIIET PAS, Poland) supplemented with 8 mg/mL of insulin and 1% of MEM NON-Essential amino acid (all Merck, Darmstadt, Germany). Normal fibroblasts BALB/3T3 cells were cultured in DMEM medium (Gibco, UK) supplemented with 10% fetal bovine serum and 1.0 mM sodium pyruvate (all from Merck, Darmstadt, Germany). All culture media were supplemented with 2 mM L-glutamine (Merck, Darmstadt, Germany), 100 units/ml penicillin, (Polfa Tarchomin S.A., Poland) and 100 µg/mL streptomycin (Merck, Darmstadt, Germany). All cell lines were grown at 37 °C in a 5% CO2 humidified atmosphere.
(§10) The solutions of the tested compounds were prepared by dissolving the substances in DMSO to the desired concentration (25 mM). Then, the tested compounds were diluted in a culture medium to reach the final concentrations. Before addition of the tested compounds (24 h prior), the cells were plated in 96-well plates (Sarstedt, Germany) at a density of 1 × 10^4, 0.75 × 10^4 (MCF-7) or 0.5 × 10^4 (A549) cells per well. The assay was performed after 72 h of exposure to 100, 10, 1 and 0.1 µM concentration of the tested agents. […] The SRB method determined the amount of cellular proteins. The concentration of the colorimetric probe (formazan in MTT or sulforhodamine B in SRB method) was determined by an optical density measurement using a standard microplate reader for 96-well plates. After optical density measurement, using the data of the mean absorbances of control cells (AbCC), the absorbances of cells treated by the tested compound (AbTr) (for each concentration separately) and the absorbance of the cultured medium (AbCM) the % of cell proliferation inhibition was calculated according to the following formula: % inh. cells proliferation=100−AbTr−AbCM/AbCC−AbCM×100
(§11) From the obtained proliferation inhibition values, effect-concentration curves of the compound used were plotted. […] IC50 values were calculated for each experiment separately using the Prolab-3 system based on Cheburator 0.4 software [36] and mean values (±SD) are presented. Each compound in each concentration was tested in triplicate in a single experiment, which was repeated 3–5 times.

[4] = system: A549 cells; test: Induction of apoptosis, Annexin V/PI staining, A549; assay type: cell-based, human; conditions: about 1.5 × IC50, 24 h
Source text: (§1) Apoptosis is one of a cell’s natural mechanisms for programmed cell death. It plays a crucial role in homeostasis by eliminating the unwanted or unnecessary cells. One of the most important functions of apoptosis is prevention of cancer. However, cancer cells often lose the ability to enter the path of apoptosis, which allows them to survive longer and grow in an uncontrolled manner. Regardless of that, apoptosis still remains the most important molecular mechanism to combat cancer cells; therefore, research is conducted to obtain agents with the ability to selectively induce apoptosis in cancer cell lines.
(§2) The MV4-11, A549 and PC-3 cells were seeded on 24-well plates (Sarstedt, Germany) for a final volume of 1.5 mL. […] After incubation, the cells were collected and 2 × 10^5 of cells were washed twice with PBS. […] Results were analyzed using Flowing software 2.5.1. […]

[5] = system: caspase-3/7; test: Caspase-3/7 activity (AC-DEVD-AMC substrate) in PC-3 cells; assay type: cell-based, human; parameters: key to Caspase 3/7 Activity, PC-3: +: plus mark represents statistically important elevated activity of caspase 3/7 compared to control; conditions: for Caspase 3/7 Activity, PC-3: +/− summary vs control
Source text: (§3) Caspase-3 and caspase-7 are cysteine-aspartic acid proteases that can directly execute apoptosis […] sequential activation of caspase-8 or caspase-9. Activation of these enzymes leads to apoptotic cell death; thus, measuring their activity is a good method to determine the pro-apoptotic potential of tested compounds. One of the mechanisms of betulin’s antiproliferative activity is activation of these enzymes; therefore, to further examine the mechanism of action of tested derivatives, we decided to determine their levels.
(§4) The MV4-11, A549 and PC-3 cells were seeded on 48-well plates for a final volume of 1 mL. […] After incubation, the cells were collected and centrifuged (5 min., 4 °C, 250× g). Cells were suspended in 50 µL of ice-cold lysis buffer (50 mM HEPES, 10% (w/v) sucrose, 150 mM NaCl, 2 mM EDTA and 1% (v/v) Triton X-100, pH 7.3, HIIET, Poland) and incubated 30 min. at […]. After the incubation, 40 µL of each sample was transferred to a white, 96-well plate (Corning, CA, USA) containing 160 µL of the reaction buffer (20 mM HEPES, 10 % sucrose, 100 mM NaCl, 1 mM EDTA, 10 mM DTT, 0.02 % Trition X-100, pH 7.3) (HIIET, Wroclaw, Poland) with 9 µM AC-DEVD-AMC (Cayman Chemical) fluorogenic substrate (λex = 360 nm, λem = 460 nm). The fluorescence increase correlated with the caspase-3/7 level was continuously recorded at 37 °C for 120 min using a Biotek Synergy H4 (Biokom, Warsaw, Poland). Compounds were tested in duplicates in a single experiment and each experiment was repeated at least three times independently. Results were normalized to the number of cells in each well and are reported as mean relative caspase-3/7 activity compared to the untreated control sample ± SD.

[6] = system: PC-3 cells; test: Induction of apoptosis, Annexin V/PI staining, PC-3; assay type: cell-based, human; conditions: about 1.5 × IC50, 72 h
Source text: as §1, §2

[7] = system: caspase-3/7; test: Caspase-3/7 activity (AC-DEVD-AMC substrate) in A549 cells; assay type: cell-based, human; parameters: key: +: plus mark represents statistically important elevated activity of caspase 3/7 compared to control
Source text: as §3, §4

[8] = Cytotoxicity, SRB assay, normal BALB/3T3 fibroblasts; conditions: mouse, BALB/3T3 normal fibroblast cells
Procedure: as §7, §8, §9, §10, §11

[9] = system: A549 cells; test: Cell cycle analysis, PI staining flow cytometry, A549; assay type: cell-based, human; conditions: for Influence on cell cycle, A549, 72 h: about IC50, 72 h
Procedure: (§5) The effects of the selected derivatives on the cell cycle were analyzed by flow cytometry using PI staining.
(§6) The MV4-11, A549 and PC-3 cells were seeded on 24-well plates (Sarstedt, Germany) for a final volume of 1.5 mL. […] After incubation, the cells were collected and 1 × 10^6 of cells were washed twice in cold PBS and fixed for 24 h in 70% ethanol at −20 °C, the cells were washed twice in PBS and incubated with RNAse (8 μg/mL, Fermentas, Germany) at 37 °C for 1 h. The cells were stained for 30 min. with propidium iodide (50 μg/mL, Sigma Aldrich, Germany) at 4 °C and the cellular DNA content was analyzed by flow cytometry using BD LSRFortessa cytometer (BD Bioscience, San Jose, CA, USA). Compounds at each concentration were tested at least three times independently. The obtained results were analyzed using Flowing software 2.5.1 (Cell Imaging Core, Turku Centre for Biotechnology, University of Turku and Åbo Akademi University, Turku, Finland).

[10] = system: PC-3 cell line; test: Antiproliferative activity, SRB assay, PC-3 prostate carcinoma cells; conditions: for IC50: Homo sapiens, PC-3, 72 h, read-out: Cytotoxicity IC50 against PC-3 cell line; for Calculated Selectivity Index SI, PC-3: IC50 BALB/3T3 / IC50 PC-3
Procedure: as §7, §8, §9, §10, §11

[11] = system: A549 cell line; test: Antiproliferative activity, SRB assay, A549 lung carcinoma cells; conditions: for IC50: Homo sapiens, A549, 72 h, read-out: Cytotoxicity IC50 against A549 cell line; for Calculated Selectivity Index SI, A549: IC50 BALB/3T3 / IC50 A549; for Antiproliferative Activity, A549: +/− summary, IC50 vs betulin 1
Procedure: as §7, §8, §9, §10, §11

[12] = system: MCF-7 cell line; test: Antiproliferative activity, SRB assay, MCF-7 breast carcinoma cells; conditions: for IC50: Homo sapiens, MCF7, 72 h, read-out: Cytotoxicity IC50 against MCF-7 cell line; for Calculated Selectivity Index SI, MCF-7: IC50 BALB/3T3 / IC50 MCF-7
Procedure: as §7, §8, §9, §10, §11

[13] = system: MV4-11 cells; test: Cell cycle analysis, PI staining flow cytometry, MV4-11; assay type: cell-based, human; conditions: about IC50, 24 and 72 h
Procedure: as §5, §6

[14] = in vitro; conditions: mouse
Procedure: as §7, §8, §9, §10, §11

[15] = system: caspase-3/7; test: Caspase-3/7 activity (AC-DEVD-AMC substrate) in MV4-11 cells; assay type: cell-based, human
Source text: as §3
The MV4-11, A549 and PC-3 cells were seeded on 48-well plates for a final volume of 1 mL. […] After incubation, the cells were collected and centrifuged (5 min., 4 °C, 250× g). Cells were suspended in 50 µL of ice-cold lysis buffer (50 mM HEPES, 10% (w/v) sucrose, 150 mM NaCl, 2 mM EDTA and 1% (v/v) Triton X-100, pH 7.3, HIIET, Poland) and incubated 30 min. at 40 °C. […] The fluorescence increase correlated with the caspase-3/7 level was continuously recorded at 37 °C for 120 min using a Biotek Synergy H4 (Biokom, Warsaw, Poland). […]

[16] = 1.5 × IC50, 24 h, several-fold lower at 72 h

| SMILES | RM0 [2] | IC50 [3] | Calculated Selectivity Index SI, MV4-11 [3] | Caspase 3/7 Activity, PC-3 [5] | Induction of apoptosis (AnV/PI), PC-3, 72 h [6] | caspase 3/7 activity, A549 [7, 16] | caspase 3/7 activity, A549 ([7]; +/− summary vs control) | IC50 at 72 h [8] | Influence on cell cycle, A549, 72 h [9] | IC50 [10] | Calculated Selectivity Index SI, PC-3 [10] | IC50 [11] | Calculated Selectivity Index SI, A549 [11] | IC50 [12] | Calculated Selectivity Index SI, MCF-7 [12] | IC50 at 72 h [14] | caspase-3/7 levels, MV4-11, 24 h [15] | Antiproliferative Activity, A549 [11] | other results |
| --- | --- | --- | --- | --- | --- | --- | --- | --- | --- | --- | --- | --- | --- | --- | --- | --- | --- | --- | --- |
| c1ccc(CCc2ccccc2)cc1 [dibenzyl, reference compound] | 3.54 |  |  |  |  |  |  |  |  |  |  |  |  |  |  |  |  |  | LogPlit [1]: 4.49 |
| C=C(C)[C@@H]1CC[C@]2(COC(=O)CCC(=O)O)CC[C@]3(C)C(CCC4[C@@]5(C)CC[C@H](O)C(C)(C)C5CC[C@]43C)C12 (some centres unmarked) [compound 2] | 5.910 | 23.2 µM | 2.3 | + | shifting the ratio of the living cell population towards apoptotic and necrotic ones | hugely elevated caspase 3/7 activity | + | 53.4 µM | greater percentage of dead cells with a decrease in G2/M and G0/G1 phases | 68.5 µM | 0.8 | 35.3 µM | 1.5 | 53.6 µM | 1.0 |  |  |  | Induction of apoptosis (AnV/PI), A549, 24 h [4]: significantly increased levels of early-apoptotic and apoptotic cells; Influence on cell cycle, A549, 24 h ([9]; about IC50, 24 h): significantly induced cell cycle arrest in the G0/G1 phase; also recorded: reduced the number of cells in the S phase with an increased number of dead cells; log PTLC ([2]; from RM0 by calibration curve with eight reference compounds): 8.191; Influence on cell cycle, MV4-11 [13]: statistically significant increase in the number of cells in the G0/G1 phase |
| COc1cccc2c1C(=O)c1c(O)c3c(c(O)c1C2=O)C[C@@](O)(C(=O)CO)C[C@@H]3O[C@H]1C[C@H](N)[C@H](O)[C@H](C)O1 [Doxorubicin, doxorubicin, reference compound] |  | 0.01 µM | 18.0 |  |  |  |  | 0.18 µM |  | 0.43 µM | 0.4 | 0.04 µM | 4.5 | 0.08 µM | 2.3 |  |  |  |  |
| C=C(C)[C@@H]1CC[C@]2(COC(=O)CCC(=O)N3CCSCC3)CC[C@]3(C)C(CCC4[C@@]5(C)CC[C@H](O)C(C)(C)C5CC[C@]43C)C12 (some centres unmarked) [2d] | 5.898 | 3.16 µM | 15.8 |  |  |  |  |  | greater percentage of dead cells with a decrease in G2/M and G0/G1 phases | 50 µM | 1.0 | 32 µM | 1.6 | 50 µM | 1.0 | > 50 µM | increased levels of caspase-3/7 |  |  |
| C=C(C)[C@@H]1CC[C@]2(COC(=O)CCC(=O)N3CCOCC3)CC[C@]3(C)C(CCC4[C@@]5(C)CC[C@H](O)C(C)(C)C5CC[C@]43C)C12 (some centres unmarked) [2b] | 5.024 | 3.94 µM | 6.4 | + | shifting the ratio of the living cell population towards apoptotic and necrotic ones | hugely elevated caspase 3/7 activity | + |  |  | 17.9 µM | 1.4 | 8.03 µM | 3.1 | 19.3 µM | 1.3 | 25 µM |  | + | caspase-3/7 activity, PC-3 ([5]; 1.5 × IC50, 24 and 72 h): very high level of caspase-3/7 after 24 and 72 h; Antiproliferative Activity, PC-3 ([10]; +/− summary, IC50 vs betulin 1): + |
| C=C(C)[C@@H]1CC[C@]2(COC(=O)CCC(=O)N3CCCCC3)CC[C@]3(C)C(CCC4[C@@]5(C)CC[C@H](O)C(C)(C)C5CC[C@]43C)C12 (some centres unmarked) [2c] | 5.728 | 5.78 µM | 5.7 |  |  | hugely elevated caspase 3/7 activity | + |  | induced cycle arrest in the G0/G1 phase with a decrease in the G2/M phase | 30.9 µM | 1.1 | 6.98 µM | 4.7 | 22.2 µM | 1.5 | 32.7 µM | increased levels of caspase-3/7 | + |  |
